The test system of experiment [1] is Hela cells. In words: MTT determination of cell survival rate. It is filed as cell-based. Set-up: dose or concentration left out as unconfirmed. The conditions noted are these: ouabain for 48 h and 24 h, respectively. As to the method:
By methyl thiazolyl tetrazolium (MTT), the cell survival rate was measured. When the cell density in a 6-well plate reached 80%-90%, the cells were digested, and centrifuged at 1000 rpm for 5 min; a cell precipitate was left, added with 1 mL of culture solution and then resuspended; and the cells were counted with a cell counting plate. 100 µL of cell suspension was added to a 96 ELISA plate at 1×10^4 cells/well, and sterile PBS was added around cell wells. The cells were cultured on a 96-well plate for 12 to 24 h. When the cell growth density reached 60% to 80%, a drug could be added to treat the cells at this point. […] The absorbance of each well was detected with a microplate reader at 490 nm and the cell survival rate was calculated. […]
(§1) High-concentration ouabain can lead to apoptosis of cells. To study the pharmacological effect of ouabain Nb, this study treated Hela cells with ouabain and ouabain Nb, and detected the effects of ouabain and antibody protein on the cell survival rate by an MTT method. […] To further verify the biological activity of ouabain Nb, the Ca^2+ concentration in the HeLa cells was detected by neutralizing ouabain monomers with ouabain Nb. […] After incubation of ouabain Nb (5 μM) and ouabain, the cells were treated and the Ca^2+ concentration was detected.

The subject of experiment [2] is Hela cells. Put plainly: Flow cytometry assay for intracellular Ca2+ level. It is filed as cell-based. The conditions noted are these: 250 nM ouabain vs control group. As to the method:
The cells were cultured in a 12-well cell culture dish. When the cell growth density reached 60% to 80%, a drug could be added to treat the cells. The medium was removed from the treated cells under dark conditions, and the cells were rinsed with pre-warmed HBSS for three times to eliminate esterases and other substances in the medium to reduce their degradation to an ion probe. 1-5 μM of Fluo4-AM working solution was added, such that the cells were completely covered with the working solution and incubated in a cell incubator for 40 min at a constant temperature. The Fluo4-AM working solution was discarded, and the cells were washed with HBSS for three times to thoroughly remove any remaining dye Subsequently. […]
as §1

For the molecule `C[C@@H]1O[C@@H](O[C@H]2C[C@@H](O)[C@]3(CO)[C@H]4[C@H](O)C[C@]5(C)[C@@H](C6=CC(=O)OC6)CC[C@]5(O)[C@@H]4CC[C@]3(O)C2)[C@H](O)[C@H](O)[C@H]1O` [ouabain, Ouabain], in experiment [1], the “survival rate of the cells treated with ouabain” value is listed as “reduced to half of the original”. Moreover, in experiment [2], the “Ca2+ concentration in HeLa cells” value is reported as “significantly higher than that in the control group”.

The values above are taken from patent US20260286012A1, “ANTI-OUABAIN NANOBODY AND APPLICATION THEREOF” (priority 2023, published 2026).
